Read-outs that look alike come from different tables or passages of the source.
Assays:
[1] = Pharmacokinetics of oral administration in Balb/C mice; format: in vivo; details: 30 mg/kg, P.O., plasma
Description: Balb/C mice were used as test animals to study the pharmacokinetic behavior of the compound in the plasma of mice after oral administration at a dose of 30 mg/kg.
3 Balb/C mice (3/example), male, from Shanghai Jiesijie Experimental Animal Co., Ltd., animal production license number (SCXK (Shanghai) 2013-0006 N0.311620400001794).
3 Balb/C mice, male; p.o. respectively at a dose of 30 mg/kg and an administration volume of 10 mL/kg after the mice were fasted overnight.
Before and after administration of mice, 0.1 mL of blood was collected from the orbit at 0, 0.5, 1, 2, 4, 6, 8 and 24 h, and placed in EDTA-K2 test tubes, which was centrifuged at 6000 rpm at 4° C. for 6 min to separate plasma which was stored at −80° C.
• 1) 160 μL of acetonitrile was added to 40 μL of plasma sample for precipitation, and same was mixed and centrifuged at 3500×g for 5 to 20 min. • 2) 100 μL of the treated supernatant solution was taken and subjected to LC/MS/MS to analyze the concentrations of the test compounds.
• Liquid phase conditions: Shimadzu LC-20AD pump • Mass spectrometry conditions: AB Sciex API 4000 mass spectrometer • Chromatographic column: Phenomenex Gemiu 5 um C18 50×4.6 mm • Mobile phase: liquid A is 0.1% aqueous formic acid solution, liquid B is acetonitrile • flow rate: 0.8 mL/min • Elution time: 0-4.0 min, the eluent is as follows:
The main pharmacokinetic parameters were calculated using WinNonlin 8.2.

[2] = target: Recombinant human MALT1/MLT protein (Homo sapiens (Human), UniProt Q9UDY8); test: Inhibitory effect on MALT1 enzyme activity (Ac-LRSR-AMC substrate, fluorescence 460 nm); format: biochemical; details: 10 nM FL MALT1, Ac-LRSR-AMC substrate, 50 min pre-incubation, 4 h reaction
Description: Ac-LRSR-AMC was used as the substrate to test the IC50 of the inhibitory activity of compounds on MALT1 enzyme activity at their Km concentration.
Ac-LRSR-AMC was used as the substrate which was digested by MALT1 to produce products, which produced fluorescence that could be detected at 460 nm. The highest concentration of the compound detected was 1000 nM, 3-fold dilution, a total of 11 concentrations (1000 nM-0.017 nM). The reaction system is 10 nM FL MALT1 protein, […] Ac-LRSR-AMC, 50 mM Tris pH 7.5, 0.6M Citrate, 1 mM DTT, 1 mM EDTA, 0.05% BSA and 1.5% DMSO. The compound and the enzyme were pre-incubated at room temperature for 50 min. The substrate was then added and the reaction was carried out for 4 h.
The original data (460 nm reading) was calculated according to the following formula to obtain the inhibition rate.
(§1) Log(inhibitor) vs. response—Variable slope (four parameters) in GraphPad Prism 6 was used to perform fitting equation analysis on compound concentration and corresponding inhibition rate, the curve was fit and compound IC50 value was obtained.
(§2) The fitting calculation equation is Y=Bottom+(Top−Bottom)/(1+10^((Log IC50−X)*HillSlope))

Caco-2 cells [3] = tested on: Caco-2 cells
Description: (§3) The purpose of this experiment is to test the bidirectional permeability of the compound through the Caco-2 cell model and evaluate whether the compound is transported by efflux transporters.
(§4) Liquid chromatography-mass spectrometer, centrifuge, vortexer, pipette, 96-well test plate (HTS Transwell Plate), acetonitrile solution containing internal standard, Caco-2 cells (ATCC), Hank's balance solution (HBSS), fluorescent yellow (LY), dimethyl sulfoxide (DMSO).
(§5) 108 μL of transport buffer (HBSS containing 10 μM of the example compound) was added to the administration end of A to B. • b. 300 μL of transport buffer (HBSS containing DMSO) was added to the receiving end of A to B. • c. 300 μL of transport buffer (HBSS containing 10 μM example compound) was added to the administration end of A to B. • d. 108 μL of transport buffer (HBSS containing DMSO) was added to the receiving end of A to B. • e. incubation was performed for 90 min. • d. a sample was taken, processed and detected with mass spectrometry.
(§6) • Instruments: Liquid Chromatography; • Chromatographic column: Waters XSelect HSS T3 2.5 μm (2.1×50 mm); • Mobile phase: Phase A: 0.1% formic acid in pure water; Phase B: 0.1% formic acid in acetonitrile.
(§7) • Instruments: AP16500+liquid chromatography-mass spectrometer; • The ion source is electrospray ionization source (ESI); • The detection method is positive ion detection;
(§8) The scanning method is selected reaction monitoring (MRM).

[4] = target: MALT1 protease activity in TMD8 cells (substrate BCL-10) (Homo sapiens (Human), UniProt Q9UDY8); test: Intracellular MALT1 protease activity detection (BCL-10 ELISA in TMD8 cells); format: cell-based; details: undigested BCL-10 by ELISA, 30 min compound then 2 h stimulation cocktail, read-out: Bcl10 TMD8 IC50
Description: By detecting the digestion level of the substrate BCL-10 by MALT1 in TMD8 cells, the inhibitory effect of the compound on MALT1 protease activity in the cellular environment was tested.
The ELISA sandwich method was used to detect the content of undigested BCL-10 protein in cells and determine the inhibitory effect of compounds on intracellular MALT1 protease activity. The highest concentration of the compound detected was 10000 nM, 3-fold dilution, a total of 9 concentrations (10000 nM-1.5 nM). Cells were plated at an appropriate density. Compounds of corresponding concentrations were first added for action for 30 min, and then eBioscience cell stimulation cocktail was added to stimulate the cells for 2 h. Cell lysate was then collected. The cell lysate was added to the assay plate previously coated with recombinant BCL-10 antibody (Abcam, #Ab33905) and incubated at 4° C. overnight. The next day, BCL-10 detection antibody (Santacruz, #Sc-5273HRP) was added and incubated for 2 h, TMB substrate was used for color development for about 30 min, then the color development was terminated, and a microplate reader was used for detection.
2) Curve fitting: Log(inhibitor) vs. response—Variable slope (four parameters) in GraphPad Prism 6 was used to perform fitting equation analysis on compound concentration and corresponding inhibition rate, the curve was fit and compound IC50 value was obtained.
as §2

[5] = tested on: OCI-LY3 cell subcutaneous xenograft tumor; test: Tumor inhibition in OCI-LY3 subcutaneous xenograft NOG mouse model of human diffuse large B-cell lymphoma; format: in vivo; details: NOG mice, 30 mg, BID × 4 weeks, oral
Description: The efficacy of test drugs was evaluated in OCI-LY3 mouse subcutaneous tumor model of human diffuse large B-cell lymphoma
• 1. Animal: NOG mice, female, 6-8 weeks old, weighing 18-22 grams, a total of 65 mice were needed. Provided by Beijing Vital River Laboratory Animal Technology Co., Ltd. or other qualified suppliers. • 2. Cell: Human diffuse large B-cell lymphoma OCI-LY3 cells were cultured in vitro as monolayers and conventional digestion treatment with trypsin-EDTA was carried out twice a week for passage. When the cell confluence was 80%-90% and the number reached the required number, cells were collected, counted, and inoculated. • 3. Grouping for vaccination: Cells (5×10^6 cells+Matrigel/0.2 ml) were inoculated subcutaneously into each mouse. The growth of animals and transplanted tumors were observed regularly. When the tumor grew to a volume of about 150-200 mm^3, the tumor volume of each mouse was calculated, and the mice were divided into random groups according to tumor volume and body weight. The calculation formula of tumor volume was V=0.5a×b^2, wherein a and b represented the long and short diameters of the tumor, respectively. • 4. Administration: According to the grouping results, the test drug was started to be administered (administration method: oral administration; Administration volume: 10 mL/kg; Administration frequency: 2 times/day; Administration cycle: 28 days; Vehicle: 10% solutol HS15-0.25% CMC-Na). Tumors were measured and weighed twice a week after starting administration of test drugs. • 5. Animals were euthanized after the experiment. • 6. Data processing: The tumor inhibitory efficacy of the compound was evaluated by TGI (%) or relative tumor proliferation rate T/C (%). TGI (%) reflects the tumor growth inhibition rate. Calculation of TGI (%): TGI (%)=[(1−(average tumor volume at the end of administration in a treatment group−average tumor volume at the beginning of administration in the treatment group))/(average tumor volume at the end of administration in the solvent control group−average tumor volume at the beginning of administration in the solvent control group)]×100%.
Relative tumor proliferation rate T/C (%): The calculation formulas are as follows: T/C %=TRTV/CRTV×100% (TRTV: RTV of treatment group; CRTV: RTV of negative control group). The relative tumor volume (RTV) was calculated based on the results of tumor measurement. The calculation formula is RTV=Vt/V0, where V0 is the average tumor volume measured at grouping for administration (i.e. d0), Vt is the average tumor volume at a certain measurement, and TRTV and CRTV take the data on the same day.
After the experiment, the tumor weight was measured, and the T/Cweight percentage was calculated. Tweight and Cweight represented the tumor weight of the administration group and the vehicle control group, respectively.
Remarks: The data in parentheses indicate the tumor volume corresponding to the vehicle group (i.e., the control group) at the corresponding time in this example.

Caco-2 cells [6] = test: Caco-2 bidirectional permeability test
Description: as §3, §4, §5, §6, §7, §8

OCI-Ly3 cells = test: Inhibition of proliferation of OCI-Ly3 cells (CellTiter-Glo); format: cell-based, human; details: 96 h incubation, read-out: Inhibition test of proliferation of OCI-Ly3 cells IC50
Description: The compound's inhibitory effect on the proliferation of TMD8 and OCI-Ly3 cells was evaluated through cell proliferation inhibition experiments.
The compound's inhibitory effect on the proliferation of TMD8 and OCI-Ly3 cells was detected by the CellTiter-Glo method. The highest concentration of the compound detected was 1000 nM, 3-fold dilution, a total of 9 concentrations (1000 nM-0.15 nM). After the cells were plated at an appropriate density, compounds were added the next day and incubated for 96 h before detection using the CellTiter-Glo Luminescent detection kit.
as §1, §2

MALT1 protease activity in TMD8 cells (substrate BCL-10), sequence (Q9UDY8 whole entry): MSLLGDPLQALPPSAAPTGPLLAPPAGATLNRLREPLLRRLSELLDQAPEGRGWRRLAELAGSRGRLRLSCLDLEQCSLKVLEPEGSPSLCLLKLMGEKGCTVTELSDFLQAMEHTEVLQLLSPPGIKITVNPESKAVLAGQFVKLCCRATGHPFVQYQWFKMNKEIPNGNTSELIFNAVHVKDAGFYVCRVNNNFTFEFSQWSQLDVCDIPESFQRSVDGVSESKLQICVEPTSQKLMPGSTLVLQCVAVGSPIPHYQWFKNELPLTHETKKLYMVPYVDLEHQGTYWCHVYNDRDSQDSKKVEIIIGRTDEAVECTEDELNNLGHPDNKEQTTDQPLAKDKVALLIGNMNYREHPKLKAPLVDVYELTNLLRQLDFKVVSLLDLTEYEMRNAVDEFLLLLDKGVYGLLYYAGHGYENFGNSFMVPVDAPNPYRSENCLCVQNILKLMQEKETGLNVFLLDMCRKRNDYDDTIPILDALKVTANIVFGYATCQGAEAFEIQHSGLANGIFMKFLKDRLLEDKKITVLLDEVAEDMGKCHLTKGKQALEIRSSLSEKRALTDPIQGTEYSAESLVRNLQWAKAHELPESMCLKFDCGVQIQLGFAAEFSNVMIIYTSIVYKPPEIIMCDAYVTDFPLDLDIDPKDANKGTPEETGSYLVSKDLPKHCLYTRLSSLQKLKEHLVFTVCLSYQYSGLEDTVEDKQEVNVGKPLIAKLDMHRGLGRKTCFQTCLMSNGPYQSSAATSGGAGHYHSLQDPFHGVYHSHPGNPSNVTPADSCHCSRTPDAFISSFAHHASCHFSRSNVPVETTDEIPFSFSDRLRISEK
Recombinant human MALT1/MLT protein, sequence (Q9UDY8 whole entry): as above

Row | Compound | AUC0-∞ [1] | AUC(0-t) [1] | Cmax [1] | MRT [1] [h] | T1/2 [1] [h] | Tmax [1] [h] | IC50 [2] [nM] | Papp A − B (Caco-2 cells [3]; Caco-2) | Papp B − A (Caco-2 cells [3]; Caco-2) | Papp(B − A)/Papp(A − B) (Caco-2 cells [3]; human, Caco-2, 90 min, 10 μM) | IC50 [4] [nM] | TGI (%) Day 28 [5] [%] | Weight Day 28 [5] | ΔT/ΔC(%) Day 28 [5] [%] | Tumor volume (Mean ± SD) Day 28 ([5]; vehicle group 1274 ± 82) | Papp A − B (Caco-2 cells [6]; Caco-2, 10 μM, 90 min, A to B) | Papp B − A (Caco-2 cells [6]; Caco-2, 10 μM, 90 min, B to A) | Papp(B − A)/Papp(A − B) (Caco-2 cells [6]; Caco-2 efflux ratio) | IC50 (OCI-Ly3 cells) [nM]
1 | O=C(Nc1ccnc(C(F)(F)F)c1)c1cnn(-c2ccc3c4c(cccc24)C(=O)N3)c1C(F)(F)F [Example 3] | 341,390 ng/mL*hr | 330,088 ng/mL*h | 23,733 ng/mL | 7.4 | 4.7 | 4.0 | 105 | 1.57 10^−6 cm · s^−1 | 10.24 10^−6 cm · s^−1 | 6.52 | 83 |  |  |  |  |  |  |  | 
2 | O=C(Nc1ccnc(C(F)(F)F)c1)c1cnn(-c2ccc3c4c(cccc24)C(=O)N3)c1C(F)(F)F [Example 27] | 1,584,433 ng/mL*hr | 1,130,746 ng/mL*h | 71,267 ng/mL | 18.7 | 13.1 |  | 162 |  |  |  | 51 | 93.04 | 20.34 ± 0.78 | 19.83 | 230 ± 50 (1274 ± 82) mm^3 | 4.21 10^−6 cm · s^−1 | 11.52 10^−6 cm · s^−1 | 2.74 | 804
